We go through 17 compounds from ChEMBL document CHEMBL1152163, “Development of novel 2-[4-(aminoalkoxy)phenyl]-4(3H)-quinazolinone derivatives as potent and selective histamine H3 receptor inverse agonists” (Bioorg Med Chem Lett, 2008).

The target in series [1] is T1, Alpha-1A adrenergic receptor (Homo sapiens, UniProt P35348).
T1 sequence (P35348 whole entry): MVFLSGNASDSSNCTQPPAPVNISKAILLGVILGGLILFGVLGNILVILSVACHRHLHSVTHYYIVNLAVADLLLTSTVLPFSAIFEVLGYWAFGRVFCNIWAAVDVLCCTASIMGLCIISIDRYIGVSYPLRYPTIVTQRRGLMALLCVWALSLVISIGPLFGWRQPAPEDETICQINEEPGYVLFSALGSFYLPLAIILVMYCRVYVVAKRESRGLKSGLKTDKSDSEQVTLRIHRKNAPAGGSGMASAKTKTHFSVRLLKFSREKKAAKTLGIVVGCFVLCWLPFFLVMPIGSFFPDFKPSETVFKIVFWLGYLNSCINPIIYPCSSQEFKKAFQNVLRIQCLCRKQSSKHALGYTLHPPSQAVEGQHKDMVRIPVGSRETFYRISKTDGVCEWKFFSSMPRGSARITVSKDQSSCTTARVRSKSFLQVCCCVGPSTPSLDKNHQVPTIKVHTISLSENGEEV
In words: Displacement of [3H]prazosin from human adrenergic alpha1A receptor expressed in LMtk- cells. The class given is cell-based. (In general: Displacement assays read how much labelled ligand stays bound in the presence of the test substance.)

The target of a further series is Histamine H1 receptor (Homo sapiens, UniProt P35367). Put plainly: Inhibition of human histamine H1 receptor.
Series [2] deals with Rattus norvegicus. Put plainly: Plasma clearance in Sprague-Dawley rat at 1 mg/kg, iv. The class given is ADME, organism-based. Also noted: dose 1 mg/kg, route intravenous. Particulars: in vivo.
For a further series, the system named is Brain. Put plainly: Drug level in Sprague-Dawley rat brain at 10 mg/kg, po. Particulars: in vivo. The class given is ADME, organism-based. The arrangement: dose 10 mg/kg, route oral.
A short description of series [3]: Half life in Sprague-Dawley rat at 1 mg/kg, iv. The class given is ADME, organism-based. Also noted: dose 1 mg/kg, route intravenous. The following applies: in vivo.
Series [4] deals with Rattus norvegicus. In words: Plasma concentration in Sprague-Dawley rat at 10 mg/kg, po. Particulars: in vivo. The class given is ADME, organism-based. The arrangement: dose 10 mg/kg, route oral.
Series [5] can be described thus: Oral bioavailability in Sprague-Dawley rat. The class given is ADME, organism-based. Particulars: in vivo.
For the next series, the target named is Histamine H2 receptor (Homo sapiens, UniProt P25021). In words: Inhibition of human histamine H2 receptor.
The subject of series [6] is Rattus norvegicus. Put plainly: Increase in tele-methylhistamine level in po dosed Sprague-Dawley rat brain. The class given is functional, organism-based.
Series [7] in a line: Volume of distribution at steady state in Sprague-Dawley rat at 1 mg/kg, iv. The class given is ADME, organism-based. Also noted: dose 1 mg/kg, route intravenous. The following applies: in vivo, read-out: Vdss.
A further series has as its target Histamine H4 receptor (Homo sapiens, UniProt Q9H3N8). Put plainly: Inhibition of human histamine H4 receptor.
Series [8] is described as follows: AUC (0 to infinity) in Sprague-Dawley rat at 3 mg/kg, po. The class given is ADME, organism-based. Also noted: time infinity, dose 3 mg/kg, route oral. The following applies: plasma.
The nature of series [9]: Cmax in Sprague-Dawley rat at 3 mg/kg, po. The class given is ADME, organism-based. Also noted: dose 3 mg/kg, route oral. The following applies: in vivo.

What is called IC50 is the point on the concentration scale where inhibition reaches its midpoint. For orientation: clearance means the volume of plasma or blood freed of the substance per unit of time. A higher clearance goes with a high capacity for elimination. Usually half-life stands for the time needed for the level to fall by half in the phase considered. Low values mean fast loss, high ones slow loss. For orientation: bioavailability means dose-corrected exposure relative to a reference, in per cent. A word on the AUC(0-inf): it is the area under the concentration-time curve extrapolated to infinity. Higher therefore signals more exposure. As usually defined, the Cmax is the maximum level reached in the sampled fluid or tissue.

Histamine H4 receptor, sequence (Q9H3N8 whole entry): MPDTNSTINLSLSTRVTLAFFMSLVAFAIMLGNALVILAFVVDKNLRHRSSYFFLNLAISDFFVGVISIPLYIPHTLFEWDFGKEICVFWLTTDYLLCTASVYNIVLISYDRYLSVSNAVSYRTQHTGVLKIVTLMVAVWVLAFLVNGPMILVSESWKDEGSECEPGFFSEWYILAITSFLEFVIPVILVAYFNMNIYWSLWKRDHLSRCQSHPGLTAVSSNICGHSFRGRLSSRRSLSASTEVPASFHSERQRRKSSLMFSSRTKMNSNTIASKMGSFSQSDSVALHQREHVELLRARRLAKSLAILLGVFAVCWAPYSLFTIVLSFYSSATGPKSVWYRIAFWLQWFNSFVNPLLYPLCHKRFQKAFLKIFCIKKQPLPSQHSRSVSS
Histamine H2 receptor, sequence (P25021 whole entry): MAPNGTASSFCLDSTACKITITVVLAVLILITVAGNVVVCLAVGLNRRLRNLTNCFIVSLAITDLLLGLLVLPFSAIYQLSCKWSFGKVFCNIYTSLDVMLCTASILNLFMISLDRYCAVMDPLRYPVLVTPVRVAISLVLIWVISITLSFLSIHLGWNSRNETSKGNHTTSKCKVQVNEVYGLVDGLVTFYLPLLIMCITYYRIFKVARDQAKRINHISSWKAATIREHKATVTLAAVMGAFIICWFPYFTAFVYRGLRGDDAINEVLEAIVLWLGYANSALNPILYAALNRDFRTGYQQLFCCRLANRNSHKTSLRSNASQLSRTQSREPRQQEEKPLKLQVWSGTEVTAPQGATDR
Histamine H1 receptor, sequence (P35367 whole entry): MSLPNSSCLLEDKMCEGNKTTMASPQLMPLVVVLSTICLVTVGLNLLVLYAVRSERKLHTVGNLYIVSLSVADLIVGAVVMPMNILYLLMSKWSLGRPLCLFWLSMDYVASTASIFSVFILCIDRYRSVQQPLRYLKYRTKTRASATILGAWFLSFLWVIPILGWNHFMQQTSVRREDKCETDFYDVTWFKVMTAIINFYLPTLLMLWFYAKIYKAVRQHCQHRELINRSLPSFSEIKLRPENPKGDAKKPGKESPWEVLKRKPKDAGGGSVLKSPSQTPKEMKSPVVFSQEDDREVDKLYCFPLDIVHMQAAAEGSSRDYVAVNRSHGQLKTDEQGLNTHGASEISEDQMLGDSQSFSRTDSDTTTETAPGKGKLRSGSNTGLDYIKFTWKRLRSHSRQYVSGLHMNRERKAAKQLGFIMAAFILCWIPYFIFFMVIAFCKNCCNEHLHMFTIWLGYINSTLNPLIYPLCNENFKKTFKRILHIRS

Compound `O=c1c2ccccc2nc(-c2ccc(OCCCN3CCCCC3)cc2)n1Cc1ccccc1` gave an IC50 in series [1] of 7.2 µM.

In series [1], `Cc1cccc2c(=O)n(C)c(-c3ccc(OC4CCN(C5CCC5)CC4)cc3)nc12` displayed a concentration for half-maximal inhibition (IC50) of 10 µM. Compound `COc1cccc2nc(-c3ccc(OC4CCN(C5CCC5)CC4)cc3)n(C)c(=O)c12` gave an IC50 in [1] of 4.2 µM.

With `Cc1nc2ccccc2c(=O)n1-c1ccc(OCCCN2CCCCC2)cc1`, the IC50 in series [1] is 6.5 µM. Compared with the last compound, the IC50 is about 1.5-fold higher.

Turning to `COc1cccc2c(=O)n(C)c(-c3ccc(OC4CCN(C5CCC5)CC4)cc3)nc12`, the IC50 in series [1] was greater than 10 µM.

`Cn1c(-c2ccc(OC3CCN(C4CCC4)CC3)cc2)nc2c(F)cccc2c1=O` returned an IC50 in series [1] of 4.5 µM. In other words, the single-digit micromolar range.

As for `Cn1c(-c2ccc(OC3CCN(C4CCC4)CC3)cc2)nc2ccccc2c1=O`, the IC50 in series [1] stood at 6.3 µM.

Regarding `COc1nccc2c(=O)n(C)c(-c3ccc(OC4CCN(C5CCC5)CC4)cc3)nc12`, the IC50 (at Histamine H1 receptor; in series [1]; against Histamine H2 receptor; at Histamine H4 receptor) was greater than 10 µM throughout. In the series on Rattus norvegicus [2], this compound gave a clearance of 29 mL/min/kg. Further, the Drug uptake in the series on Brain is listed as 2.96 nmol/g. In series [3], this compound gave a half-life of 2 h. The compound further showed a concentration in the series on Rattus norvegicus [4] of 2080 nM. The bioavailability in series [5] is 48%. The Activity result in the series with Rattus norvegicus [6] was “Dose-dependent effect”. The Vd in [7] amounted to 4.8 L/kg. Also, the AUC(0-inf) in [8] was determined as 2.1 µM·h. This compound came in with a Cmax in series [9] of 570 nM. In [1], `Cn1c(-c2ccc(OC3CCN(C4CCC4)CC3)cc2)nc2c(Cl)cccc2c1=O` returned an IC50 of 6.5 µM. That is a single-digit micromolar value.

On to `Cn1c(-c2ccc(OCCCN3CCCCC3)cc2)nc2ccccc2c1=O`, for which the IC50 in series [1] amounted to 2.9 µM.

Compound `Cn1c(-c2ccc(OCCCN3CCCC3)cc2)nc2ccccc2c1=O` yielded a 50% inhibitory concentration (IC50) in series [1] of 2.2 µM. Still for that read-out and setting: the figure for `O=c1c2ccccc2nc(-c2ccc(OCCCN3CCCCC3)cc2)n1-c1ccccc1` is 2.4 µM; for `COc1ccc2c(=O)n(C)c(-c3ccc(OC4CCN(C5CCC5)CC4)cc3)nc2c1` it is greater than 10 µM. The same measure, in the same setting: the figure for `COc1ccc2nc(-c3ccc(OC4CCN(C5CCC5)CC4)cc3)n(C)c(=O)c2c1` is 5.9 µM. In turn, `CCn1c(-c2ccc(OCCCN3CCCCC3)cc2)nc2ccccc2c1=O` had an IC50 in series [1] of 1.3 µM.

Turning to `Cn1c(-c2ccc(OC3CCN(C4CCCC4)CC3)cc2)nc2ccccc2c1=O`, the 50% inhibitory concentration (IC50) in series [1] was 6.2 µM.

In series [1], `Cn1c(-c2ccc(OC3CCN(C4CCC4)CC3)cc2)nc2c(C(F)(F)F)cccc2c1=O` registered an IC50 greater than 10 µM.
